Test results reported in PMC9108603, “Microbial Metabolite Inspired β‐Peptide Polymers Displaying Potent and Selective Antifungal Activity” (Advanced Science, 2022).
Values after ≈ are worked out from the molar mass of the structure shown. Where two headings read alike, the source gives them in different places.

Columns and labels:
C. albicans SC5314 = assay: Biofilm-induced fungal keratitis model; format: in vivo, mouse (male BALB/c); details: 10 μL every 5 min for 1 h, then every 30 min for 7 h, versus saline, n = 10
Method: Medicine (Accreditation number of the laboratory: SHDSYY-2021-1729). The experiment […]
method. […] AmpB was
(2.5% DMSO in final solution).
The organs (kidney, liver, and
14th day for histological analysis and blood biochemistry analysis.
30 min during the next 7 h.
C. albicans biofilm formation on contact lenses. The contact lenses (Biomedic ®, Cooper […]
Then the discs were transferred to a […]
and incubated at rt with shaking at 100 rpm. After 6 hours of incubation, the suspension was […]
addition of 150 μL fresh RPMI medium into each well. […]
All mice were killed and the eyeballs of each mouse were collected immediately 30 min after the administration of the last eye drop. Ten eyeballs from each group were homogenized for quantitative analysis of fungal counts with the number of CFUs expressed as mean log (CFU per eye), and the remaining four eyeballs were collected for histological analysis. […]
After incubation for 24 h at 30 °C, the colonies were counted and the number of CFUs was […]
expressed as mean log 10 (CFU per eye). […]
Statistical Analysis. […] Significance between two groups was determined by two-tailed t-test. […] All results were expressed as mean values ± s.d. n = 3 for each in vitro statistical analysis. n = 8 or 10 for each in vivo statistical analysis. […]

[1] = tested on: C. albicans and C. neoformans; assay: MIC/MFC, summary over all fungal strains; format: cell-based, Candida albicans, Cryptococcus neoformans
Method: (§1) In vitro antifungal assays. The MIC assays for C. albicans (K1, SC5314, Gu5, ATCC90028, R01, R02, R03 and R04 strains) and C. neoformans (H99, MYA737 and JEC21 strains) were conducted according to a previously described protocol. The cultured fungal cells were collected at 2.5 × 10^3 CFU/mL in RPMI 1640 medium to give the working suspension. Two- […]
(§2) plate to give 50 µL compound solution in each well. Then 50 µL of the cell suspension was added to each well. Wells containing cells in RPMI without any polymer or antifungal drug were used as drug-free controls, and wells containing RPMI medium only were used as cell-free controls. The plate was gently stirred for 10 seconds and then incubated at 30 °C. After C. albicans and C. neoformans cells were incubated for 24 h and 48 h, respectively, fungal cell growth was checked visually. The MIC values were identified as the lowest concentration […]
C. albicans . The MFC assay for Candida and Cryptococcus was conducted after the MIC test.
(§3) An aliquot of 3 µL premixed suspension from each well was plated on the yeast extract-peptone-dextrose (YPD) agar. The plates were incubated at 30 °C for 24 h and 48 h, respectively, for C. albicans cells and C. neoformans cells. Then the plate was inspected visually for colony formation. […]

ICR mice = assay: In vivo acute toxicity, single IV injection
Method: In vivo acute toxicity. All animal procedures were performed in accordance with the
Guidelines for Care and Use of Laboratory Animals of the Shanghai Tenth People’s Hospital
(License number: SYXK( 沪)-2021-0012), and experiments were approved by the Animal
Ethics Committee of the Shanghai Tenth People’s Hospital, Tongji University School of
was performed on 6-weeks old female ICR mice (n = 10) using the previously reported
prepared in DMSO and further diluted into sterile saline to a final concentration of 0.3 mg/mL
and 3 mg/kg, respectively, and mice injected with saline were used as controls. After a single
injection, all survival mice were weighed daily for 14 days. The organs (kidney, liver, and
spleen) (n = 2) and blood of mice treated by PDAP 20 or saline (n = 8) were collected on the

C. albicans [2] = assay: MIC assay (in vitro antifungal assay); format: cell-based, Candida albicans; details: for MIC: Candida albicans
Method: as §1
as §2, with “Then” for “plate to give 50 µL compound solution in each well. Then”, “visually.” for “visually. The MIC values were identified as the lowest concentration”

C. neoformans = assay: MFC assay, plating after the MIC test; format: cell-based; details: Cryptococcus neoformans, 48 h; note: kills > 99.9%
Method: as §1
as §2, with “Then” for “plate to give 50 µL compound solution in each well. Then”
(§4) The MFC assay for Candida and Cryptococcus was conducted after the MIC test.
as §3

C. albicans [3] = assay: MFC assay, plating after the MIC test; format: cell-based; details: Candida albicans; note: kills > 99.9%
Method: as §1
as §2, with “Then” for “plate to give 50 µL compound solution in each well. Then”
as §4, §3

C[C@@H]1[C@H](O)[C@@H](C)/C=C/C=C/C=C/C=C/C=C/C=C/C=C/[C@H](O[C@@H]2O[C@H](C)[C@@H](O)[C@H](N)[C@@H]2O)C[C@@H]2O[C@](O)(C[C@@H](O)C[C@@H](O)[C@H](O)CC[C@@H](O)C[C@@H](O)CC(=O)O[C@H]1C)C[C@H](O)[C@H]2C(=O)O [AmpB, amphotericin B]
Reduction of colonies, log CFU per eye (C. albicans SC5314; AmpB 1 mg mL^−1 eye drops): 1.8 log CFU per eye
MIC against all strains of C. albicans and C. neoformans (range) [1]: 1.2 to 3.1 µg/mL
Mice died within 48 h (ICR mice; single IV dose of 3 mg kg^−1, ICR mice, n = 10): 90%
MIC (C. albicans [2]; 24 h, read-out: MIC C. albicans R01): 1.2 µg/mL (≈ 1.3 µM)
MIC (C. albicans [2]; 24 h, read-out: MIC C. albicans R04): 1.6 µg/mL (≈ 1.73 µM)
MIC (C. albicans [2]; ATCC90028, 24 h, read-out: MIC C. albicans ATCC90028): 1.6 µg/mL (≈ 1.73 µM)
MIC (C. albicans [2]; SC5314, 24 h, read-out: MIC C. albicans SC5314): 1.6 µg/mL (≈ 1.73 µM)
MFC (C. neoformans; read-out: MFC C. neoformans JEC21): 1.6 µg/mL (≈ 1.73 µM)
MFC (C. neoformans; read-out: MFC C. neoformans MYA737): 1.6 µg/mL (≈ 1.73 µM)
MFC (C. albicans [3]; 24 h, read-out: MFC C. albicans R01): 1.6 µg/mL (≈ 1.73 µM)
MFC (C. albicans [3]; 24 h, read-out: MFC C. albicans R03): 1.6 µg/mL (≈ 1.73 µM)
MFC (C. albicans [3]; ATCC90028, 24 h, read-out: MFC C. albicans ATCC90028): 1.6 µg/mL (≈ 1.73 µM)
MFC (C. albicans [3]; SC5314, 24 h, read-out: MFC C. albicans SC5314): 1.6 µg/mL (≈ 1.73 µM)

poly(DL‐diaminopropionic acid) [PDAP20]
Reduction of colonies, log CFU per eye (C. albicans SC5314; PDAP20 15 mg mL^−1 eye drops): 1.2 log CFU per eye
MIC against all strains of C. albicans and C. neoformans (range) [1]: 0.1 to 0.8 µg/mL
Survival after IV injection (ICR mice; single IV dose of 100 mg kg^−1, ICR mice, n = 10, 14 days): all mice survived
Body weight (ICR mice; single IV dose of 100 mg kg^−1, daily for 14 days, n = 10): normal body weight compared to the saline group
H&E histology of kidney, liver and spleen (ICR mice; single IV dose of 100 mg kg^−1, day 14, n = 2): no obvious toxicity on major organs
Blood biochemistry (K+, Na+, ALT, AST, BUN, CREA) (ICR mice; single IV dose of 100 mg kg^−1, day 14, n = 8): did not cause significant changes in blood biochemical indicators
MIC at high fungal cell concentration (TEM conditions) (C. albicans [2]; 1.0 × 10^8 CFU mL^−1, fungal species not stated at the place): 50 µg/mL
MIC at high fungal cell concentration (other mechanism experiments) (C. albicans [2]; 3.0 × 10^6 CFU mL^−1, fungal species not stated at the place): 12.5 µg/mL
Effect of increasing K+ on antifungal activity (C. albicans [2]; K+ up to 20 × 10^−3 M, C. albicans K1): didn't affect
MIC C. albicans K1, standard MIC test in RPMI 1640 (C. albicans [2]; Na+ 103 mM, K+ 5.4 mM): 0.8 µg/mL
MIC C. albicans K1, K+ ↑ (C. albicans [2]; Na+ 103 mM, K+ 10 mM): 0.8 µg/mL
MIC C. albicans K1, K+ ↑ (C. albicans [2]; Na+ 103 mM, K+ 20 mM): 0.8 µg/mL
MIC C. albicans K1, physiological salt concentration (C. albicans [2]; Na+ 150 mM, K+ 5.4 mM): 1.6 μg/mL
MIC C. albicans K1, Na+ ↑ (C. albicans [2]; Na+ 200 mM, K+ 5.4 mM): 3.1 µg/mL
MIC C. albicans K1, Na+ ↑ (C. albicans [2]; Na+ 300 mM, K+ 5.4 mM): 6.3 µg/mL
MIC C. albicans K1, Na+ ↑, K+ ↑ (C. albicans [2]; Na+ 300 mM, K+ 20 mM): 6.3 µg/mL
MIC C. albicans K1 on increase of Na+ (range) (C. albicans [2]; Na+ from 150 × 10^−3 to 300 × 10^−3 M): 1.6 to 6.3 µg/mL
